# What was measured:
# [1] = biological target: T1, LFA-1 binding to immobilized ICAM-1 (Homo sapiens, UniProt P05107+P20701); experiment: LFA-1/ICAM-1 protein-protein assay (solid-phase ELISA); details: read-out: LFA-1/ICAM-1 Protein-Protein Assay IC50
# T1 construct: made in house; host or cells: transfected 293 cells (LFA-1)
# Outline: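 Human 5dICAM-Ig (ICAM-1 extracellular domain–IgG Fc) coated on plates; membrane-bound LFA-1 from transfected 293 cells (280 ng/mL) added with compound in Mn2+-containing HEPES buffer pH 7.2, 2 h at 37° C. Bound LFA-1 detected via anti-β2 antibody and HRP/TMB at 450 nm; IC50s determined.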
# [2] = tested on: cell-surface Mac-1 adhesion to immobilized fibrinogen (HL-60 cells); experiment: Mac-1/Fibrinogen cell-based screening assay; design: species or system human; details: Homo sapiens, HL-60, HL-60 cells; read-out: Mac-1/Fgn Cell based Assay IC50
# Outline: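 Wells coated with fibrinogen and blocked with PVP. Labeled HL-60 cells (2×10^6 cells/mL in RPMI/0.05% BSA/0.2 mM MnCl2) preincubated with DMSO-diluted compounds for 10 min at 37° C, then left to adhere 30 min at 37° C/5% CO2. Unbound cells washed off with TBS.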
# T1 sequence (P20701 26-1170): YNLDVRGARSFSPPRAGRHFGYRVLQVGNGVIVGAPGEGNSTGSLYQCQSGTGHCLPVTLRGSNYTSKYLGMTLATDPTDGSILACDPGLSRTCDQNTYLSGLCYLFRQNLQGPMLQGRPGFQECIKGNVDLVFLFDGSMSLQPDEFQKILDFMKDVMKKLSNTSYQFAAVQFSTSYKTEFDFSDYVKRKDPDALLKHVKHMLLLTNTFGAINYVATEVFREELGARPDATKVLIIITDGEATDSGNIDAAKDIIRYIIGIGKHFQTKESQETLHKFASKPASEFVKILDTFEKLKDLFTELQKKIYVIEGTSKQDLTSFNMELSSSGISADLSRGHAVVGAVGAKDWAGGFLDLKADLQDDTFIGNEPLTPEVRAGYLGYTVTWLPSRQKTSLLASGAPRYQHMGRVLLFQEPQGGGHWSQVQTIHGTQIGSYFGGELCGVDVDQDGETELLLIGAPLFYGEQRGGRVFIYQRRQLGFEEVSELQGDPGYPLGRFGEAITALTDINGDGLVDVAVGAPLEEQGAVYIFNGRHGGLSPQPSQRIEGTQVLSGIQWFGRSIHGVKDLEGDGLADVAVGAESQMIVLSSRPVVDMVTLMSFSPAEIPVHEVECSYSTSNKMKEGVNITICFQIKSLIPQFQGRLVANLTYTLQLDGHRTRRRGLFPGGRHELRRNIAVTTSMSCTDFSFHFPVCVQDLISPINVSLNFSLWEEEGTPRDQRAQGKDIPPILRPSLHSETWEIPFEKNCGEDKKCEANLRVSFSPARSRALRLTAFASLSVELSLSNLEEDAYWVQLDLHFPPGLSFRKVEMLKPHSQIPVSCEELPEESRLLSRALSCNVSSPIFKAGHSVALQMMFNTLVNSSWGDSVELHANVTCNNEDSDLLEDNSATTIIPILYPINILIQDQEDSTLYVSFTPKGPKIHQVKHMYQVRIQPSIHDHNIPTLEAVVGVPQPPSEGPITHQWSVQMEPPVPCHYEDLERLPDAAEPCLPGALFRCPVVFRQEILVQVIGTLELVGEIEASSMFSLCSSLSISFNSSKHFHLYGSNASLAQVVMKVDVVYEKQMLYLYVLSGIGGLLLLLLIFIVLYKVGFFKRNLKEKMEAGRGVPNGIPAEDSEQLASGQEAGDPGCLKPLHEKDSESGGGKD
# T1 sequence (P05107 23-769): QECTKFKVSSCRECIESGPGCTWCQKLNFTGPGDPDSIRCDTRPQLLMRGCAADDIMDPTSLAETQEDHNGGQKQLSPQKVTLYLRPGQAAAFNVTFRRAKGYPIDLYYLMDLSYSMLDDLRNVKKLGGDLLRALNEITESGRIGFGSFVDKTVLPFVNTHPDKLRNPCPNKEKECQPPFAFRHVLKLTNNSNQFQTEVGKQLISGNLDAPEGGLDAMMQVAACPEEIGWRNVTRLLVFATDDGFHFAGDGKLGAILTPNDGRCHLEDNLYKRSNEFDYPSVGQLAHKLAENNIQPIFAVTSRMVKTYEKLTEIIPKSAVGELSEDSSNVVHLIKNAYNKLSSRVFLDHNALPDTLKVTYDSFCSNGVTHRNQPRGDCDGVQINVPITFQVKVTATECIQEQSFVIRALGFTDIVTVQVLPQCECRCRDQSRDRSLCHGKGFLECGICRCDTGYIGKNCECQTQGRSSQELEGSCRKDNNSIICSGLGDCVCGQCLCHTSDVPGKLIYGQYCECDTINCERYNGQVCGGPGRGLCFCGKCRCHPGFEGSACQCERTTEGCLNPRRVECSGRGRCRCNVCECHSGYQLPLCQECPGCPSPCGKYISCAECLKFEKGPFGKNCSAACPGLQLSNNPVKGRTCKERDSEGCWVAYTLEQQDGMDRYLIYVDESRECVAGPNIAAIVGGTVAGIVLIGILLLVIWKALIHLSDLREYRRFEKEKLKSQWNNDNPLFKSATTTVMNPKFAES
IC50 [1] [nM],IC50 [2] [nM],Structure (SMILES)
2.3,125,O=C(NCc1cccc(O)c1)c1ccc(C(=O)N[C@@H](CNC(=O)c2cccc3ccccc23)C(=O)O)c(Cl)c1 [Example 178]
3.6,314,O=C(NCc1cccc(O)c1)c1ccc(C(=O)N[C@@H](CNC(=O)c2ccc3ccccc3c2)C(=O)O)c(Cl)c1 [Example 179]
13,4850,O=C(NCc1cccc(O)c1)c1ccc(C(=O)N[C@@H](CNC(=O)c2c3c(nc4ccccc24)CCCC3)C(=O)O)c(Cl)c1 [Example 190]
2.8,63,O=C(NCc1cccc(O)c1)c1ccc(C(=O)N[C@@H](CNC(=O)[C@@H]2CCCN2)C(=O)O)c(Cl)c1 [Example 196]
0.9,19,"O=C(NCc1cccc(O)c1)c1ccc(C(=O)N[C@@H](CNC(=O)c2cc(F)cc(F)c2)C(=O)O)c(Cl)c1 [Example 252, N-[2-chloro-4-[[[(3-hydroxyphenyl)methyl]amino]carbonyl]benzoyl]-3-(3,5-difluorobenzoyl)amino-L-alanine]"
0.7,31,O=C(NCc1cccc(O)c1)c1ccc(C(=O)N[C@@H](CNC(=O)c2csnn2)C(=O)O)c(Cl)c1 [Example 254]
0.8,24,O=C(NCc1cccc(O)c1)c1ccc(C(=O)N[C@@H](CNC(=O)c2ccno2)C(=O)O)c(Cl)c1 [Example 256]
1.2,87,COc1cscc1C(=O)NC[C@H](NC(=O)c1ccc(C(=O)NCc2cccc(O)c2)cc1Cl)C(=O)O [Example 257]
1.2,63,"O=C(NCc1cccc(O)c1)c1ccc(C(=O)N[C@@H](CNC(=O)c2ccoc2)C(=O)O)c(Cl)c1 [Example 259, N-[2-chloro-4-[[[(3-hydroxyphenyl)methyl]amino]carbonyl]benzoyl]-3-(furan-3-carbonyl)amino-L-alanine]"
2.2,46,"NCCCC(=O)NC[C@H](NC(=O)c1ccc(C(=O)NCc2cccc(O)c2)cc1Cl)C(=O)O [Example 261, N-[2-chloro-4-[[[(3-hydroxyphenyl)methyl]amino]-carbonyl]benzoyl]-3-(4-aminobutanoylamino)-L-alanine]"
4.8,49,O=C(NCc1cccc(O)c1)c1ccc(C(=O)N[C@@H](CNC(=O)C2CCNCC2)C(=O)O)c(Cl)c1 [Example 262]
0.9,74,"O=C(NCc1cccc(O)c1)c1ccc(C(=O)N[C@@H](CNC(=O)c2ccccc2)C(=O)O)c(Cl)c1 [Example 302, 3-benzoylamino-N-[2-chloro-4-[[[(3-hydroxyphenyl)methyl]amino]carbonyl]benzoyl]-L-alanine]"
0.5,8.7,"O=C(NCc1cccc(O)c1)c1ccc(C(=O)N[C@@H](CNC(=O)c2cccs2)C(=O)O)c(Cl)c1 [Example 303, N-[2-chloro-4-[[[(3-hydroxyphenyl)methyl]amino]carbonyl]benzoyl]-3-(thiophene-2-carbonyl)amino-L-alanine]"
1.9,162,"O=C(NCc1cccc2[nH]ccc12)c1ccc(C(=O)N[C@@H](CNC(=O)c2ccccc2)C(=O)O)c(Cl)c1 [Example 314, 3-(benzoylamino)-N-[2-chloro-4-[[(1H-indol-4-ylmethyl)amino]carbonyl]benzoyl]-L-alanine]"
1.3,26,Cc1cc(C(=O)NCc2cccc(O)c2)ccc1C(=O)N[C@@H](CNC(=O)c1cccs1)C(=O)O [Example 323]
1.8,18,"O=C(NCc1cccc2[nH]ncc12)c1ccc(C(=O)N[C@@H](CNC(=O)c2cccs2)C(=O)O)c(Cl)c1 [Example 327, N-[2-chloro-4-[[[(1H-indazol-4-yl)methyl]amino]carbonyl]benzoyl]-3-(thiophene-2-carbonyl)amino-L-alanine]"
1.4,6,Cc1cc(C(=O)NCc2cccc(O)c2)cc(C)c1C(=O)N[C@@H](CNC(=O)c1cccs1)C(=O)O [Example 330]
3.5,12,Cc1cc(C(=O)N[C@H](C)c2cccc3ccccc23)cc(C)c1C(=O)N[C@@H](CNC(=O)c1cccs1)C(=O)O [Example 333]
2.1,5.4,"Cc1cc(C(=O)NCc2cccc(O)c2)cc(C)c1C(=O)N[C@@H](CNC(=O)c1ccsc1)C(=O)O [Example 336, N-[2,6-dimethyl-4-[[[(3-hydroxyphenyl)methyl]amino]carbonyl]benzoyl]-3-(thiophene-3-carbonyl)amino-L-alanine]"
3.7,12,"Cc1cc(C(=O)NCc2cccc(O)c2)cc(C)c1C(=O)N[C@@H](CNC(=O)c1cc(F)cc(F)c1)C(=O)O [Example 337, N-[2,6-dimethyl-4-[[[(3-hydroxyphenyl)methyl]amino]carbonyl]benzoyl]-3-(3,5-difluorobenzoylamino)-L-alanine]"
1.5,2.2,"Cc1cc(C(=O)NCc2cccc(O)c2)cc(Cl)c1C(=O)N[C@@H](CNC(=O)c1cccs1)C(=O)O [Example 338, N-[2-chloro-4-[[[(3-hydroxyphenyl)methyl]amino]carbonyl]-6-methylbenzoyl]-3-[(thiophene-2-carbonyl)amino]-L-alanine]"
1.7,3.1,"Cc1cc(C(=O)NCc2cccc(O)c2)cc(Cl)c1C(=O)N[C@@H](CNC(=O)c1ccsc1)C(=O)O [Example 339, N-[2-chloro-4-[[[(3-hydroxyphenyl)methyl]amino]carbonyl]-6-methylbenzoyl]-3-[(thiophene-3-carbonyl)amino]-L-alanine]"
0.3,6.2,"Cc1cc(C(=O)NCc2cccc(O)c2)cc(Cl)c1C(=O)N[C@@H](CNC(=O)c1cc(F)cc(F)c1)C(=O)O [Example 340, N-[2-chloro-4-[[[(3-hydroxyphenyl)methyl]amino]carbonyl]-6-methylbenzoyl]-3-[(3,5-difluorobenzoyl)amino]-L-alanine]"
1.6,1,"O=C(NCc1cccc(O)c1)c1cc(Cl)c(C(=O)N[C@@H](CNC(=O)c2cccs2)C(=O)O)c(Cl)c1 [Example 342, N-[2,6-dichloro-4-[[[(3-hydroxyphenyl)methyl]amino]carbonyl]benzoyl]-3-[(thiophene-2-carbonyl)amino]-L-alanine]"
2.5,1.7,"O=C(NCc1cccc(O)c1)c1cc(Cl)c(C(=O)N[C@@H](CNC(=O)c2ccsc2)C(=O)O)c(Cl)c1 [Example 343, N-[2,6-dichloro-4-[[[(3-hydroxyphenyl)methyl]amino]carbonyl]benzoyl]-3-[(thiophene-3-carbonyl)amino]-L-alanine]"
0.3,4.8,"O=C(NCc1cccc(O)c1)c1cc(Cl)c(C(=O)N[C@@H](CNC(=O)c2cc(F)cc(F)c2)C(=O)O)c(Cl)c1 [Example 344, N-[2,6-dichloro-4-[[[(3-hydroxyphenyl)methyl]amino]carbonyl]benzoyl]-3-[(3,5-difluorobenzoyl)amino]-L-alanine]"
0.2,0.3,"O=C(NCc1cccc(O)c1)c1cc(Cl)c(C(=O)N[C@@H](CNC(=O)c2cc(O)cc(O)c2)C(=O)O)c(Cl)c1 [Example 345, N-[2,6-dichloro-4-[[[(3-hydroxyphenyl)methyl]amino]carbonyl]benzoyl]-3-(3,5-dihydroxybenzoylamino)-L-alanine]"

# Reference: patent US20040006236A1, “Diaminopropionic acid derivatives” (priority 1999, published 2004)
